We go through 10 compounds from patent publication US9511052B2, “Mineralocorticoid receptor antagonists” (Merck Sharp & Dohme Corp., priority 2012, dated 2016).

Data set [1] in a line: Liver microsome stability, rat. Type of data set: in vitro ADME. The conditions noted are these: liver microsomes, read-out: Liver Microsome Stability (t1/2).
Data set [2] is described as follows: Hepatocyte stability, rat. Type of data set: in vitro ADME. The conditions noted are these: hepatocytes, read-out: Hepatocyte Stability (t1/2).
Data set [3] is described as follows: Hepatocyte stability, human. Type of data set: in vitro ADME. The conditions noted are these: for half-life: human, hepatocytes, read-out: Hepatocyte Stability (t1/2).
A short description of data set [4]: Liver microsome stability, human. Type of data set: in vitro ADME. Particulars: for half-life: human, liver microsomes, read-out: Liver Microsome Stability (t1/2); for Liver Microsome Stability (t1/2): Human.
Data set [5] can be described thus: Liver microsome stability, rhesus monkey. Type of data set: in vitro ADME. Particulars: liver microsomes, read-out: Liver Microsome Stability (t1/2).
Data set [6] is described as follows: Liver microsome stability, dog. Type of data set: in vitro ADME. Particulars: liver microsomes, read-out: Liver Microsome Stability (t1/2).
The nature of data set [7]: Hepatocyte stability, rhesus monkey. The format is in vitro ADME. Particulars: hepatocytes, read-out: Hepatocyte Stability (t1/2).
The target in data set [8] is T1, full-length human Mineralocorticoid Receptor (MR) (Homo sapiens, UniProt P08235).
T1 construct: host or cells: PathHunter CHO-K1 MR cells
T1 sequence (P08235 1-984): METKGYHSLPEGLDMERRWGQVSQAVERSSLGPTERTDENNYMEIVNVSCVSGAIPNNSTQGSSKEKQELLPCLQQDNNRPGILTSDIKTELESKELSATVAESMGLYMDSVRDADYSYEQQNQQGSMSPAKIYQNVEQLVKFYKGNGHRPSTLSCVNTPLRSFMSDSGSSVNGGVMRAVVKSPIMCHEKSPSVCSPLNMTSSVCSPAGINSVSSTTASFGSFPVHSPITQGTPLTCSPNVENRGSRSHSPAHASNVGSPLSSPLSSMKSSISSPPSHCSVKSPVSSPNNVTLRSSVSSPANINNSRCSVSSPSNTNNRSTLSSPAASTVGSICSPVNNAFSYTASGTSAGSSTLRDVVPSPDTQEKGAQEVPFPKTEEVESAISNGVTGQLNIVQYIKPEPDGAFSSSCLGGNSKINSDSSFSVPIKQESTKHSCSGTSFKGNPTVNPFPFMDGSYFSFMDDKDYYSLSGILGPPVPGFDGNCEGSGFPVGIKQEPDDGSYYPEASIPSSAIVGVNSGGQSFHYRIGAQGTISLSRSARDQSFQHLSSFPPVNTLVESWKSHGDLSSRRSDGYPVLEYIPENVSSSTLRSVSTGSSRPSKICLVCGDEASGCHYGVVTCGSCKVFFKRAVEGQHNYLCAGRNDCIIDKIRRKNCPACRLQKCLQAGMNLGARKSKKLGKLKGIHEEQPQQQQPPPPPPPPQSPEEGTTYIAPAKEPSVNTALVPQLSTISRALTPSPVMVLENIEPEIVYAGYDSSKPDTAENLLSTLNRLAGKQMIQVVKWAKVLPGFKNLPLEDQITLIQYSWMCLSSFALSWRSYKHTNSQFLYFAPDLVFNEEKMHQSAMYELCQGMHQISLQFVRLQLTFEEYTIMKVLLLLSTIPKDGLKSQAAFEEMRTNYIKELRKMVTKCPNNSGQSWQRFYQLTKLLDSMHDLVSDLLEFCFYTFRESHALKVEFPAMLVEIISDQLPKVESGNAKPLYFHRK
Put plainly: human MR NH Pro assay (PathHunter Protein:Protein interaction assay), MR antagonism. Type of data set: cell-based. Particulars: IP = inflection point of the dose-response curve; CHO-K1 cells overexpressing human MR, aldosterone about 0.3 nM to about 1 nM, 6 hours at 37° C. The source says:
The activity of the compounds of the present invention regarding mineralocorticoid receptor antagonism can be evaluated using the following assay.
Assessment of MR Potency in HMR NH Pro Assay
The human MR NH Pro assay is a commercially available PathHunter™ Protein:Protein interaction assay (DiscoveRx; http://www.discoverx.com/nhrs/prod-nhrs.php) that measures the ability of compounds to antagonize full-length human Mineralocorticoid Receptor (MR) binding to a coactivator peptide.
Stock solution was prepared at 10 μM in DMSO and stored at −20° C. for assay, dilute in assay media to 1.8 or 6 nM (6× of final concentration=about 0.3 nM to about 1.0 nM)
5. Cell line: PathHunter CHO-K1 MR cells Cat #93-0456C2, Lot No: 09B0913, from operation liquid nitrogen stock.
6. Control Antagonist: Spironolactone: Sigma #S-3378 and Eplerenone Sigma #107724-20-9 (10 mM stock concentration also prepared in DMSO and stored at −20° C.).
1. Cells are grown in F12+FBS+Hygromycin+pen/strep+Genetin
2. Cells are collected with 0.05% trypsin and the cell suspension is spun and resuspended in a volume of F12+1.5% CD-FBS and counted.
3. The cells concentration was adjusted to 4×10^5 cells/mL.
4. Cells were (25 μL/well) added to the wells of a 384 well plate.
5. The plate was then incubated at 37° C. over night in a humidified incubator with 5% CO2.
6. Test compounds were titrated starting at 4.4 mM, 10-point titration in 1:3 dilution.
Protocol for 384 well plate format: 6 hr treatment:
1. 10K exponentially growing cells/well (25 μL) were resuspended in assay media and plated into each well using the Multidrop (Thermo Electron) (use white wall, clear bottom assay plates (Costar #3570) and incubated overnight at 37° C., 5% CO2.
2. 0.25 μL 120× test compound (final DMSO concentration should be <1%) was added to each well n=2, 10 point titrations starting at 36.7 μM final concentration.
4. 5 μL of assay media was added to all wells in column 23 and 24.
5. Cells were then incubated for 6 hrs at 37° C., 5% CO2.
6. 15 μL 3× DiscoveRx detection reagent was then added to each well.
7. Plates were incubated for 1 hour at room temperature in the dark.
8. Plates were read on Envision (PerkinElmer) luminesence plate reader and analyzed using ADA.

Data set [9] in a line: Hepatocyte stability, dog. Type of data set: in vitro ADME. The conditions noted are these: hepatocytes, read-out: Hepatocyte Stability (t1/2).
The nature of the next data set: PK profile in rats. Particulars: for clearance / half-life / bioavailability: rat, in vivo; for bioavailability: oral. Type of data set: in vivo, rat.
Data set [10] can be described thus: Metabolic stability in liver microsome and hepatocytes of multiple animal species (overall statement). Type of data set: in vitro ADME.

Consider `CC(O)C(CC(F)F)(c1ccc(C(F)(F)F)cc1)n1ncc2c(NS(C)(=O)=O)cccc21` (single isomer, unassigned) [Compound 37, N-(1-(1,1-difluoro-4-hydroxy-3-(4-(trifluoromethyl)phenyl)pentan-3-yl)-1H-indazol-4-yl)methanesulfonamide], for which the half-life in [1] was 2.03 h; in data set [2], over 1.5 h; in data set [3] it was over 1.5 h; in data set [4], 1.43 h; in data set [5], 2.05 h; in data set [6] it was 0.967 h. Also, the half-life in [7] was over 1.5 h; in data set [9], 1.32 h. In [8], this compound registered an IC50 of 0.066 µM.
Consider `CCC(c1ccc(Br)cc1)(C(C)O)n1ncc2c(NS(C)(=O)=O)cccc21` (single isomer, unassigned) [Compound 2, N-(1-(3-(4-bromophenyl)-2-hydroxypentan-3-yl)-1H-indazol-4-yl) methanesulfonamide], for which the half-life in data set [1] is 0.883 h; in [2], over 1.5 h; in “PK profile in rats” it was 3.6 h; in [5], 0.383 h; in [6], 1.12 h; in data set [7], 0.933 h. Further, the half-life in data set [9] stood at 0.75 h. Moreover, the “Hepatocyte Stability (t1/2)” value in data set [3] (Human) stood at 1.15 h. The “PK profile in rats (in words)” value in the data set “PK profile in rats” was “good PK profile”. The compound further showed an AUCN po in the data set “PK profile in rats” of 1.0 µM·kg·h/mg. In addition, the clearance in “PK profile in rats” came out at 18 mL/min/kg. In “PK profile in rats”, this compound displayed a bioavailability of 49%. In addition, the “Liver Microsome Stability (t1/2)” value in data set [4] was 0.8 h. Further, the IC50 in data set [8] was 0.007 µM. Also, the “metabolic stability in liver microsome and hepatocytes of multiple animal species (in words)” value (“metabolic stability” below) in data set [10] is reported as “good metabolic stability”.
Regarding `CC(O)C(CC(F)F)(c1ccc(C(F)(F)F)cc1)n1ncc2c(NS(C)(=O)=O)cccc21` (single isomer, unassigned) [Compound 35, N-(1-(1,1-difluoro-4-hydroxy-3-(4-(trifluoromethyl)phenyl)pentan-3-yl)-1H-indazol-4-yl)methanesulfonamide], in “PK profile in rats”, the “PK profile in rats (in words)” value is recorded as “good PK profile”, the AUCN po was 2.7 µM·kg·h/mg, the clearance turned out to be 14 mL/min/kg and the half-life was 7 h. The compound also registered a bioavailability in “PK profile in rats” of 98%. In data set [8], half-maximal inhibition (IC50) required 0.05 µM. In addition, the “metabolic stability” value in [10] is “good metabolic stability”.
For `CCC(c1ccc(C(F)(F)F)cc1)(C(C)O)n1ncc2c(NS(C)(=O)=O)cc(F)cc21` (single isomer, unassigned) [Compound 31, N-(6-fluoro-1-(2-hydroxy-3-(4-(trifluoromethyl)phenyl)pentan-3-yl)-1H-indazol-4-yl)methanesulfonamide], the half-life in data set [1] is 3.9 h; in [2], over 1.5 h; in data set [3] it was 1.5 h; in the data set “PK profile in rats”, 5.2 h; in data set [4], 2.6 h; in data set [5], 1.12 h. Also, the results for the half-life in data set [6], in [7] and in [9] were 2.13 h, over 1.5 h and 1.22 h, respectively. Further, in the data set “PK profile in rats”, the “PK profile in rats (in words)” value is “good PK profile”. In addition, the AUCN po in the data set “PK profile in rats” is 4.0 µM·kg·h/mg. The compound also had a clearance in “PK profile in rats” of 8.4 mL/min/kg. This compound returned a bioavailability in “PK profile in rats” of 92%. Moreover, the IC50 in [8] is 0.051 µM. For the same compound, in data set [10], the “metabolic stability” value was “excellent metabolic stability”.
Take `CCC(O)C(CC)(c1ccc(C(F)(F)F)cc1)n1ncc2c(NS(C)(=O)=O)cccc21` (single isomer, unassigned) [Compound 9, N-(1-(4-hydroxy-3-(4-(trifluoromethyl)phenyl)hexan-3-yl)-1H-indazol-4-yl)methanesulfonamide]: the half-life was 1.02 h in data set [1]; over 1.5 h in data set [2]; over 1.5 h in data set [3]; 1.02 h in data set [5]; 1.08 h in data set [6]; over 1.5 h in data set [7]. Further, the half-life in data set [9] is 0.8 h. In addition, the Cl in “PK profile in rats” came out at 24 mL/min/kg. Also, the “PK profile in rats (in words)” value in “PK profile in rats” was “good PK profile”. Moreover, the t1/2 in the data set “PK profile in rats” was 5.3 h. Besides, the AUCN po in “PK profile in rats” turned out to be 1.3 µM·kg·h/mg. The compound also came in with a bioavailability in “PK profile in rats” of 76%. In addition, the “Liver Microsome Stability (t1/2)” value in data set [4] stood at 1.2 h. Further, in data set [8], the IC50 came out at 0.004 µM. Moreover, in data set [10], the “metabolic stability” value is “good metabolic stability”.
Turning to `CC(O)C(CC(F)F)(c1ccc(C(F)(F)F)cc1)n1ncc2c(NS(C)(=O)=O)cccc21` (single isomer, unassigned) [Compound 36, N-(1-(1,1-difluoro-4-hydroxy-3-(4-(trifluoromethyl)phenyl)pentan-3-yl)-1H-indazol-4-yl)methanesulfonamide], the IC50 in [8] is 0.095 µM.
Still for that read-out and setting: with `CCC(c1ccc(S(F)(F)(F)(F)F)cc1)(C(C)O)n1ncc2c(NS(C)(=O)=O)cccc21` (single isomer, unassigned) [Compound 24, N-(1-{2-hydroxy-3-[4-(pentafluoro-λ^6-sulfanyl)phenyl]pentan-3-yl}-1H-indazol-4-yl)methanesulfonamide] the figure was 0.152 µM.
The compound `CCC(c1ccc(Br)cc1)(C(C)O)n1ncc2c(NS(C)(=O)=O)cccc21` (single isomer, unassigned) [Compound 1, N-(1-(3-(4-bromophenyl)-2-hydroxypentan-3-yl)-1H-indazol-4-yl) methanesulfonamide] returned an IC50 in data set [8] of 0.01 µM.
In [8], `CCC(c1ccc(Br)cc1)(C(C)O)n1ncc2c(NS(C)(=O)=O)cccc21` (single isomer, unassigned) [Compound 3, N-(1-(3-(4-bromophenyl)-2-hydroxypentan-3-yl)-1H-indazol-4-yl) methanesulfonamide] had an IC50 of 0.733 µM.
In turn, `CCC(c1ccc(C(F)(F)F)cc1)(C(O)C(F)F)n1ncc2c(NS(=O)(=O)CC)cc(F)cc21` (single isomer, unassigned) [Compound 53, N-(1-(1,1-difluoro-2-hydroxy-3-(4-(trifluoromethyl)phenyl)pentan-3-yl)-6-fluoro-1H-indazol-4-yl)ethanesulfonamide] gave an IC50 in data set [8] of 0.011 µM.
